In patent US9504746B2, “Pharmaceutical compositions of 4-(3-chloro-4-(cyclopropylaminocarbonyl)aminophenoxy)-7-methoxy-6-quinolinecarboxamide” (Eisai R&D Management Co., Ltd., priority 2004, dated 2016):

Assay: pH of 5% (w/w) aqueous solution or suspension of additive
Type: physicochemical
Settings: 5% (w/w) aqueous solution or suspension of the additive itself

Row | Compound | pH value of 5% (w/w) aqueous solution or suspension
1 | CC(=O)[O-].[Na+] [Sodium acetate] | 8.46
2 | O=C([O-])O.[Na+] [NaHCO3, Sodium hydrogencarbonate] | 8.15
3 | [Na+].[OH-] [NaOH, Sodium hydroxide] | 13.56
4 | O=P([O-])([O-])O.[K+].[K+] [Example K2HPO4, Dipotassium hydrogenphosphate] | 9.11
5 | O=C([O-])[O-].[Na+].[Na+] [Na2CO3, Sodium carbonate] | 11.45
6 | O=C1O[C@H](CO)[C@@H](O)[C@H](O)[C@H]1O [δ-Gluconolactone] | 2.40
7 | O=P([O-])([O-])O.[Na+].[Na+] [Na2HPO4, Disodium hydrogenphosphate] | 9.26
8 | O=C([O-])CC(O)(CC(=O)[O-])C(=O)[O-].[Na+].[Na+].[Na+] [Sodium citrate] | 8.22
9 | NCC(=O)O [Glycine] | 6.17
10 | [O]=[Mg] [MgO, Magnesium oxide] | 10.63
